Values quoted from earlier work as cited in patent US20030232875A1, “Bicyclic pyrrolyl amides as glucogen phosphorylase inhibitors” (priority 2000, published 2003).

Experiments:
hepatocytes = conditions: in hepatocytes
db/db and ob/ob mice = db/db and ob/ob mice following treatment
conscious dogs = conditions: following a glucagon challenge

In the case of `CN(C)C(=O)[C@H](O)[C@H](Cc1ccccc1)NC(=O)c1cc2cc(Cl)ccc2[nH]1` [CP91149], the glucagon stimulated glycogenolysis (hepatocytes) is given as “reduce”, the glucose output (hepatocytes) is given as “reduce” and the plasma glucose concentration (db/db and ob/ob mice) is given as “reduced, in a dose related manner”.
For `O=C(N[C@@H](Cc1ccc(F)cc1)C(=O)N1CCC(O)CC1)c1cc2cc(Cl)ccc2[nH]1` [CP320626], the glucagon stimulated glycogenolysis (hepatocytes) is listed as “reduce”, the glucose output (hepatocytes) is listed as “reduce” and the plasma glucose concentration (db/db and ob/ob mice) is listed as “reduced, in a dose related manner”.
In the case of `CCN1C(C)=C(C(=O)OC(C)C)C(c2ccccc2Cl)C2=C1COC2=O` (centres unmarked) [Bay R 3401], the “arterial plasma glucose levels” value (conscious dogs) is given as “reduced significantly” and the hepatic glucose output (conscious dogs) is given as “reduced significantly”.
